Results reported in ChEMBL document CHEMBL1130733, “Synthesis and structure-activity relationships of pyridine-modified analogs of 3-[2-((S)-pyrrolidinyl)methoxy]pyridine, A-84543, a potent nicotinic acetylcholine receptor agonist” (Bioorg Med Chem Lett, 1998).

What was measured:
[1] = molecular target: Nicotinic acetylcholine receptor alpha3/betaX; test: Stimulation of cation efflux in Nicotinic acetylcholine receptor alpha3-betaX subtype expressing IMR-32 cells; format: functional, cell-based, Homo sapiens
[2] = molecular target: T1, Neuronal acetylcholine receptor; alpha4/beta2 (Homo sapiens, UniProt P17787+P43681); test: Maximal efficacy relative to 100 uM nicotine in human nAChR alpha4-beta2 expressing K177 cells; format: cell-based
T1 sequence (P17787 whole entry): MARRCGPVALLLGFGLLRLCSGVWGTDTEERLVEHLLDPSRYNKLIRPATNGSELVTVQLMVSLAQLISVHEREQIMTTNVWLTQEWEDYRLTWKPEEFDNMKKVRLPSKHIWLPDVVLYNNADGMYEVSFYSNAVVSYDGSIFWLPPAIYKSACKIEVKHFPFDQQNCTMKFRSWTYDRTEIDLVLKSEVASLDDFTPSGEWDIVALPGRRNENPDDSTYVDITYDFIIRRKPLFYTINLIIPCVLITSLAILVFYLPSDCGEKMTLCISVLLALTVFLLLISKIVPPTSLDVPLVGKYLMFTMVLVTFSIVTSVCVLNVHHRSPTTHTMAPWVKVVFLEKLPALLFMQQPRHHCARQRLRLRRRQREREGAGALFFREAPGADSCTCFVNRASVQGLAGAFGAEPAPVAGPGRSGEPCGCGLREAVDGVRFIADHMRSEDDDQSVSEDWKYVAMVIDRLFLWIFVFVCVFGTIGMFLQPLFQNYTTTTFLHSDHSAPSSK
T1 sequence (P43681 whole entry): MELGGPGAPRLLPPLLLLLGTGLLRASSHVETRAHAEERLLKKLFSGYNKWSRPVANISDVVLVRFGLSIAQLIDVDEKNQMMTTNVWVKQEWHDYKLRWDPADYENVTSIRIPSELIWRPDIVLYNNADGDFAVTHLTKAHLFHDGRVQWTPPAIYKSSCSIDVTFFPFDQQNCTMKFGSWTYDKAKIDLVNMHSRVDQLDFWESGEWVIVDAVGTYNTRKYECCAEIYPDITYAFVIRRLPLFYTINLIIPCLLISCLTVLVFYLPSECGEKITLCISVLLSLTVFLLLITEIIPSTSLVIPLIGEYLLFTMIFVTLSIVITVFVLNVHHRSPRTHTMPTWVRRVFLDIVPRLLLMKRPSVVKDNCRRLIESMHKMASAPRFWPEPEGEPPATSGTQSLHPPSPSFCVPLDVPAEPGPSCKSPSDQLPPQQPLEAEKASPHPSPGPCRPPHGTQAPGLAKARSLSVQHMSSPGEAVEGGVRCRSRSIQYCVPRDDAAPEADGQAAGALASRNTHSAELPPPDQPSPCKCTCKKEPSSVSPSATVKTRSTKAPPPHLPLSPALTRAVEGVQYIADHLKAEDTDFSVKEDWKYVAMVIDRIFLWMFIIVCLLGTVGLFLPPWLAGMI

[3] = molecular target: Neuronal acetylcholine receptor; alpha4/beta2 (Rattus norvegicus, UniProt P09483+P12390); test: Binding affinity towards nAChR (alpha4-beta2) by the displacement of [3H](-)-cytisine in whole rat brain membranes.; format: cell membranes
Chain of Neuronal acetylcholine receptor; alpha4/beta2 (Rattus norvegicus, UniProt P09483+P12390) (P09483 whole entry): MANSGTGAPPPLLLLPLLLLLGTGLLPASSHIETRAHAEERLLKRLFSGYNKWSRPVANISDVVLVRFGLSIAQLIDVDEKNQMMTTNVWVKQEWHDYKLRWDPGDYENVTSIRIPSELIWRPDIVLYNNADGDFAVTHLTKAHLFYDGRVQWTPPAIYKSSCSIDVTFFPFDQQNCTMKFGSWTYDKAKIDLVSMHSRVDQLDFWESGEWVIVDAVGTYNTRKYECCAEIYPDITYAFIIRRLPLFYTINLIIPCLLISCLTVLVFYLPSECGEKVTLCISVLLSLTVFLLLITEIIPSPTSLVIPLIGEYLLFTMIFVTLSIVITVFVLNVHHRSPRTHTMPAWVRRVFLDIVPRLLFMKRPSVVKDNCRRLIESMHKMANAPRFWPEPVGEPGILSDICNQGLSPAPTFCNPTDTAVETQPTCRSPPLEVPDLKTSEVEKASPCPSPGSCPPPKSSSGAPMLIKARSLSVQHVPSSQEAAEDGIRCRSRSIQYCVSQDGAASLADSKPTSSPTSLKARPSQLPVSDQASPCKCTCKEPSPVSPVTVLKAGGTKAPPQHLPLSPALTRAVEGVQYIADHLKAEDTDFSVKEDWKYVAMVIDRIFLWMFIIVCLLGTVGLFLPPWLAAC
Chain of Neuronal acetylcholine receptor; alpha4/beta2 (Rattus norvegicus, UniProt P09483+P12390) (P12390 whole entry): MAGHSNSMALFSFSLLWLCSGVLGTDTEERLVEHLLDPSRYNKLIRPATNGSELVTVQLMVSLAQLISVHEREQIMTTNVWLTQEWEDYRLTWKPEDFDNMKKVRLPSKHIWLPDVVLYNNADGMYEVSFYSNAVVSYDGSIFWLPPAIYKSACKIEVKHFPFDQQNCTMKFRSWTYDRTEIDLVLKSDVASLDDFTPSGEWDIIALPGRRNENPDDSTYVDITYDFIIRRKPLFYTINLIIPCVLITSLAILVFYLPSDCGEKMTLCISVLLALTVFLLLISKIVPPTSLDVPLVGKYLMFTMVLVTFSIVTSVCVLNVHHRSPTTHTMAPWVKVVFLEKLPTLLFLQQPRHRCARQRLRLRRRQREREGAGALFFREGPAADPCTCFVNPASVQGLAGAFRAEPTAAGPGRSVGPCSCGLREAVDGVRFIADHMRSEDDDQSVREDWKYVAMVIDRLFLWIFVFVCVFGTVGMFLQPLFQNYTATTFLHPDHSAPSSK

[4] = molecular target: T1, Neuronal acetylcholine receptor; alpha4/beta2; test: Stimulation of cation efflux in human nAChR alpha4-beta2 expressing K177 cells; format: cell-based
[5] = molecular target: T1, Neuronal acetylcholine receptor; alpha4/beta2; test: Inhibition of cation efflux in human nAChR alpha4-beta2 expressing K177 cells; format: cell-based
[6] = molecular target: T1, Neuronal acetylcholine receptor; alpha4/beta2; conditions: IMR-32
Description: Maximal efficacy in nAChR subtype human alpha3betaX, expressed in IMR-32 cells

[7] = molecular target: T1, Neuronal acetylcholine receptor; alpha4/beta2; conditions: K177
Description: Maximal efficacy in human nAChR alpha4-beta2 expressing K177 cells

[8] = molecular target: Nicotinic acetylcholine receptor alpha3/betaX (Homo sapiens) (UniProt P11230+P17787+P30926+P32297+Q05901); test: Maximal efficacy relative to 100 uM nicotine in Nicotinic acetylcholine receptor alpha3-betaX subtype expressing IMR-32 cells; format: cell-based

For CCCCc1cncc(OC[C@@H]2CCCN2C)c1, the EC50 [1] was > 1000 µM, the Max [2] was 14% and the Ki [3] was 0.16 nM. For the same compound, the EC50 [4] was > 1000 µM and the IC50 [5] was 640 nM.
In the case of CN1CCC[C@H]1c1cccnc1, the Max [6] is reported as 100% and the Max [7] is reported as 100%.
Compound CN1CCC[C@H]1COc1cncc([N+](=O)[O-])c1 has a Ki [3] of 4.65 nM.
CN1CCC[C@H]1COc1cccnc1 was tested, and the EC50 [1] was 19.4 µM, the Max [8] was 73.2% and the Max [2] was 100%. For the same compound, the Ki [3] was 0.15 nM.
For CCN(CC)C(=O)c1ccncc1OC[C@@H]1CCCN1C, the Ki [3] was 2830 nM.
For CN1CCC[C@H]1COc1cncc(N)c1, the Ki [3] was 0.63 nM.
For CSc1ncccc1OC[C@@H]1CCCN1C, the Ki [3] was 559 nM.
CN1CCC[C@H]1COc1cncc(C(F)(F)F)c1 gave a Ki [3] of 1.83 nM.
CN1CCC[C@H]1COc1ccc(Cl)nc1 showed an EC50 [1] of 27.1 µM, a Max [2] of 108% and a Ki [3] of 0.64 nM. For the same compound, the EC50 [4] was 1.4 µM.
With CCCc1cncc(OC[C@@H]2CCCN2C)c1 the EC50 [1] was > 1000 µM, the Max [2] was 13% and the Ki [3] was 0.12 nM. For the same compound, the EC50 [4] was > 1000 µM and the IC50 [5] was 2400 nM.
Compound CN1CCC[C@H]1COc1ccc(CO)nc1 has a Ki [3] of 97.4 nM.
For CN1CCC[C@H]1COc1cc(Br)c[n+]([O-])c1, the Ki [3] was 34.8 nM.
With Cc1ccc(OC[C@@H]2CCCN2C)cn1 the EC50 [1] was 13.4 µM, the Max [2] was 54.4% and the Ki [3] was 1.26 nM. It also gave an EC50 [4] of 2.2 µM.
With CN1CCC[C@H]1COc1cnccc1Br the EC50 [1] was > 1000 µM, the Max [2] was 14.1% and the Ki [3] was 28 nM. The EC50 [4] was > 1000 µM.
Compound Cc1ncccc1OC[C@@H]1CCCN1C has an EC50 [1] of 18.2 µM, a Max [8] of 27.7% and a Max [2] of 26.7%. For the same compound, the Ki [3] was 22.9 nM and the EC50 [4] was 4.8 µM.
Compound CN1CCC[C@H]1COc1cccnc1[N+](=O)[O-] has a Ki [3] of 9000 nM.
CC(C)Cc1cncc(OC[C@@H]2CCCN2C)c1 gave a Ki [3] of 0.21 nM.
Cc1cncc(OC[C@@H]2CCCN2C)c1 showed an EC50 [1] of 2.9 µM, a Max [2] of 77% and a Ki [3] of 0.48 nM. For the same compound, the EC50 [4] was 2.3 µM.
CN1CCC[C@H]1COc1cccnc1I gave a Ki [3] of 606 nM.
In the case of CN1CCC[C@H]1COc1ccc(Br)nc1, the EC50 [1] is reported as > 1000 µM, the Max [2] is reported as 42.5% and the Ki [3] is reported as 1.91 nM. It also gave an EC50 [4] of 2.6 µM.
CN1CCC[C@H]1COc1ccc(F)nc1 showed a Ki [3] of 2.56 nM.
CCCCCCc1cncc(OC[C@@H]2CCCN2C)c1 was tested, and the Ki [3] was 0.32 nM.
In the case of CN1CCC[C@H]1COc1cccnc1Br, the EC50 [1] is reported as > 1000 µM, the Max [2] is reported as 12.3% and the Ki [3] is reported as 451 nM. The EC50 [4] was > 1000 µM.
Cc1ccncc1OC[C@@H]1CCCN1C was tested, and the EC50 [1] was > 1000 µM, the Max [2] was 73.9% and the Ki [3] was 4.12 nM. It also gave an EC50 [4] of 2.1 µM.
For CN1CCC[C@H]1COc1cncc(Cl)c1, the Ki [3] was 0.6 nM.
Work on CN1CCC[C@H]1COc1cncc(F)c1 yielded a Ki [3] of 0.69 nM.
For CCc1cncc(OC[C@@H]2CCCN2C)c1, the EC50 [1] was > 1000 µM, the Max [2] was 33.7% and the Ki [3] was 0.32 nM. It also gave an EC50 [4] of 1 µM.
CCNc1cncc(OC[C@@H]2CCCN2C)c1 was tested, and the Ki [3] was 3.7 nM.
Compound CN1CCC[C@H]1COc1cncc(Br)c1 has a Max [2] of 41.8%, a Ki [3] of 0.27 nM and an EC50 [4] of 5.95 µM.
